Legend:
[1] = tested on: melanoma cells; experiment: lactate dehydrogenase (LDH) quantification in cell supernatants after low dose DR; format: cell-based, human; conditions: low dose DR (2 μM), 24 hours
[2] = tested on: Mel Juso cells; experiment: real-time cell proliferation (slope of cell index); format: cell-based, human; conditions: different concentrations of DR vs DMSO
Excerpt: (§1) FIGS. 4A through 4H depict that small Molecule KRAS Inhibition Reduces Proliferation and Induces Apoptosis in Melanoma. FIGS. 4A and 4B show proliferation (slope of cell index) of Mel Juso (FIG. 4A) and Mel Im (FIG. 4B) cells treated with DMSO and different concentrations of the KRAS small molecule inhibitor Deltarasin (DR). The cell index as dimensionless parameter for cell proliferative ability was used to determine the half maximal inhibitory concentration (IC50, small graphs) of DR. […] FIG. 4D illustrates exemplary images of different melanoma cell lines (Mel Im, Mel Juso and Mel Ei) treated with 5 μM DR or 5 μM DMSO, respectively, for 24 hours. FIGS. 4E and 4F show images of fibroblast cell lines derived from two different donors (F1, F2) and melanocytes (NHEM) treated DR (20 μM, 48 hours) or DMSO (FIG. 4E), and lactate dehydrogenase (LDH) quantification (FIG. 4F) in cell supernatants (optic density, OD) of NHEM after treatment with low dose DMSO, DR (5 μM), and DR (10 μM), respectively.

[3] = tested on: Mel Im cells; experiment: real-time cell proliferation (slope of cell index); format: cell-based, human; conditions: different concentrations of DR vs DMSO
Excerpt: as §1

[4] = tested on: Mel Juso cells; experiment: three-dimensional, anchorage-independent colony-forming assay; format: cell-based, human; conditions: Mel Juso (BRAFi primary resistant); DR 5 μM, PLX 10 μM, alone or combined
Excerpt: FIGS. 5A through 5D show time-dependent measurement of colony diameters (exemplary data in top panels) in three-dimensional, anchorage-independent “colony-forming” assays (FIGS. 5A and 5B: Mel Im, FIGS. 5C and 5D: Mel Juso). Exemplary Images (middle) and corresponding quantification of colony diameters (bottom panels, summarized data of n=3 experiments at day 19 after seeding) are also depicted. […] Effects on i) colony formation (FIGS. 5A and 5C, treatment at day 1) and ii) proliferation of pre-formed colonies (FIGS. 5B and 5D, treatment at day 7 and 13) were analyzed. […] Cells were treated for 5 hours with DMSO, 5 μM Deltarasin (DR), 10 μM PLX, or a combination of 10 μM PLX and 5 μM DR. […] (FIG. 5H) Mel Im and Mel Juso were transfected with control si-RNA (si-CTR) or with si-KRAS (si-KR). Two subgroups (blue and red) were additionally treated with 10 μM PLX (Vemurafenib) for 24 hours, with subsequent flow cytometric quantification of tumor cell apoptosis according to FIG. 5G.

[5] = tested on: murine hepatoma cell line Hepa129; experiment: apoptosis by FACS analysis; format: cell-based; conditions: 24 hours
Method: FIGS. 12A through 12C depict Murine Hepatoma Cells (Hepta129) Sensitive for Small Molecule KRAS Inhibition in vitro and in vivo. […] is exemplary images (4-fold) depicting murine Hepatoma Cells (Hepa129) treated for 24 hours with Deltarasin (DR) and/or Sorafenib (SF) using different concentration of inhibitors.

[6] = tested on: normal human epidermal melanocytes (NHEM); experiment: toxicity in non-tumor cells (images, LDH); format: cell-based; conditions: doses up to 20 μM
Excerpt: as §1

[7] = tested on: 451Lu-R and SkMel28-R cells; experiment: long-term treatment of PLX-resistant cell lines, surviving tumor cells; format: cell-based, human; conditions: 8 μM DR, 28 days
[8] = tested on: murine hepatoma cell line Hepa129; experiment: cell cycle FACS analysis (propidium iodide staining); format: cell-based; conditions: 5-6 hours of treatment
Excerpt: FIG. 13 depicts Deltarasin Inducing G2/M-Cell Cycle Arrest in Murine HCC Cells.

[9] = tested on: Mel Juso cells; experiment: long-term treatment, emergence of surviving tumor cells and drug resistance; format: cell-based, human; conditions: 28 days, IC50 or 2×IC50
[10] = tested on: PLC cells; experiment: Western blot pERK- and pAKT protein levels; format: cell-based, human; conditions: Deltarasin vs DMSO
[11] = tested on: Mel Juso cells; experiment: FACS analysis of apoptosis (Annexin / propidium iodide); format: cell-based, human
Excerpt: as §1
(§2) FIGS. 5A through 5D show time-dependent measurement of colony diameters (exemplary data in top panels) in three-dimensional, anchorage-independent “colony-forming” assays (FIGS. 5A and 5B: Mel Im, FIGS. 5C and 5D: Mel Juso). Exemplary Images (middle) and corresponding quantification of colony diameters (bottom panels, summarized data of n=3 experiments at day 19 after seeding) are also depicted. Treatments were performed in four different groups (10 μM DMSO, 5 μM Deltarasin=DR, M PLX-4032=PLX (vemurafenib), or combination of 10 μM PLX+[…]). Effects on i) colony formation (FIGS. 5A and 5C, treatment at day 1) and ii) proliferation of pre-formed colonies (FIGS. 5B and 5D, treatment at day 7 and 13) were analyzed. […] FIG. 5F show images of PLX-primary resistant Mel Juso cells treated with DMSO, DR (5 μM), high dose PLX (20 μM) and a combination of 5 μM DR+10 μM PLX for 24 hours. […] Cells were treated for 5 hours with DMSO, 5 μM Deltarasin (DR), 10 μM PLX, or a combination of 10 μM PLX and 5 μM DR. According to exemplary images for Annexin and propidium iodide (PI) staining are depicted for Mel Im. (FIG. 5H) Mel Im and Mel Juso were transfected with control si-RNA (si-CTR) or with si-KRAS (si-KR). Two subgroups (blue and red) were additionally treated with 10 μM PLX (Vemurafenib) for 24 hours, with subsequent flow cytometric quantification of tumor cell apoptosis according to FIG. 5G. Exemplary images for Annexin and propidium iodide (PI) staining are depicted for Mel Im.

[12] = tested on: Mel Im cells; experiment: as above; format: cell-based, human
Excerpt: as §1, §2

[13] = tested on: melanoma cell lines (Mel Im, Mel Juso and Mel Ei); experiment: toxicity (images) in melanoma cell lines; format: cell-based, human; conditions: 5 μM, 24 hours
Excerpt: as §1

[14] = tested on: Hep3B cells; experiment: Western blot pERK- and pAKT protein levels; format: cell-based, human; conditions: Deltarasin vs DMSO
[15] = tested on: human fibroblast cell lines; experiment: toxicity in non-tumor cells (images); format: cell-based; conditions: doses up to 20 μM, 48 hours
Excerpt: as §1

[16] = 5 hours, 5 μM DR, 10 μM PLX or combination

c1ccc(Cn2c(-c3ccc(OC[C@H](C4CCNCC4)n4c(-c5ccccc5)nc5ccccc54)cc3)nc3ccccc32)cc1 [Deltarasin, (S)-1-Benzyl-2-(4-(2-(2-phenyl-1H-benzo[d]imidazol-1-yl)-2-(piperidin-4-yl)ethoxy)phenyl)-1H-benzo[d]imidazole]
lactate dehydrogenase (LDH) amounts in cell supernatants [1]: sufficient to increase lactate dehydrogenase (LDH) amounts
inhibition of proliferation (slope of cell index) [2]: dose-dependent inhibition of proliferation
inhibition of proliferation (slope of cell index) [3]: dose-dependent inhibition of proliferation
three-dimensional colony formation and colony proliferation [4]: markedly inhibited
apoptosis [5]: marked effects
toxic effects in normal human epidermal melanocytes (NHEM) [6]: no toxic effects
emergence of surviving tumor cells (cross-resistance to DR) [7]: completely abolish the emergence of surviving tumor cells
G2/M-Cell Cycle Arrest [8]: dose-dependently induces
SubG1 fractions [8]: increased
surviving tumor cells after long-term treatment [9]: no surviving tumor cells were detected
pERK- and pAKT protein levels [10]: significant reduction
induction of apoptosis (FACS) ([11]; 5 μM for 8, 16 and 24 hours): marked time-dependent induction of apoptosis
apoptosis (FACS), short treatment [11, 16]: did not induce apoptosis
induction of apoptosis (FACS) ([12]; 5 μM for 8, 16 and 24 hours): marked time-dependent induction of apoptosis
apoptosis (FACS), short treatment [12, 16]: only slightly induced apoptosis
toxicity in different melanoma cell lines [13]: marked toxicity
pERK- and pAKT protein levels [14]: significant reduction
toxic effects in human fibroblast cell lines [15]: no toxic effects

Source: patent US20200147058A1, “KRAS INHIBITOR FOR USE IN TREATING CANCER” (Friedrich-Alexander-Universitat Erlangen-Numberg, priority 2016, published 2020)
